PMC8248988, “A signal capture and proofreading mechanism for the KDEL-receptor explains selectivity and dynamic range in ER retrieval” (eLife, 2021)

Columns and labels:
[1] = system: endogenous KDEL receptor in COS-7 cells; test: ER retrieval assay, endogenous KDEL receptor redistribution; assay type: cell-based, African green monkey
Description: Figure 1. ER retrieval signal abundance and affinity are not correlated. (a) Sequence logos for ER resident proteins with C-terminal KDEL retrieval signals and variants thereof calculated using frequency or protein abundance ([Itzhak et al., 2017]; [Itzhak et al., 2016]). (b) Combined cellular concentrations of ER resident proteins with canonical KDEL, RDEL, and HDEL retrieval sequences in HeLa cells and mouse brain. (c) Competition binding assays for [^3H]-TAEHDEL and unlabelled TAEKDEL, TAERDEL, and TAEHDEL to the KDEL receptor. IC50 values for the competing peptides were used to calculate the apparent KDwith the Cheng-Prusoff equation ([Cheng and Prusoff, 1973]). (d) Endogenous KDEL receptor redistribution was measured in COS-7 cells in the absence (-ligand) or presence of K/R/H/A/DDEL (mScarlet-xDEL^sec). TGN46 was used as a Golgi marker. Scale bar is 10 µm. (e) The mean difference for K/R/H/A/DDEL comparisons against the shared no ligand control are shown as Cummings estimation plots. The individual data points for the fraction of KDEL receptor fluorescence in the Golgi are plotted on the upper axes with sample sizes and p values. Figure 1—source data 1. Source data for the ligand-induced KDELR receptor retrieval assays in Figure 1e. Figure 1—figure supplement 1. […] Endogenous ER chaperone secretion was measured by western blotting after challenge with different retrieval signals, and plotted as a bar graph showing mean ± SEM (n = 3). […] (a) Distribution of human KDELR1 and (b) KDELR2 was measured in COS-7 cells in the absence (-ligand) or presence of K/R/H/A/DDEL retrieval signals (K/R/H/A/DDEL^sec). […] The fraction of KDEL receptor localised to the Golgi was measured before (no ligand) and after challenge with different retrieval signals as indicated. […]
To create KDELR1-GFP and KDELR2-GFP, the reading frames for Homo sapiens KDELR1 (Uniprot: P24390) and KDELR2 (Uniprot: P33947) were cloned into the pEF5/FRT low level mammalian expression vector with a C-terminal 20 amino acid linker made up of 5 copies of Gly-Ser-Ser-Ser followed by GFP. […]

ERP72 = test: ER chaperone secretion assay, ERP72; assay type: cell-based, human
Description: Figure 1. ER retrieval signal abundance and affinity are not correlated. (a) Sequence logos for ER resident proteins with C-terminal KDEL retrieval signals and variants thereof calculated using frequency or protein abundance ([Itzhak et al., 2017]; [Itzhak et al., 2016]). (b) Combined cellular concentrations of ER resident proteins with canonical KDEL, RDEL, and HDEL retrieval sequences in HeLa cells and mouse brain. (c) Competition binding assays for [^3H]-TAEHDEL and unlabelled TAEKDEL, TAERDEL, and TAEHDEL to the KDEL receptor. IC50 values for the competing peptides were used to calculate the apparent KDwith the Cheng-Prusoff equation ([Cheng and Prusoff, 1973]). (d) Endogenous KDEL receptor redistribution was measured in COS-7 cells in the absence (-ligand) or presence of K/R/H/A/DDEL (mScarlet-xDEL^sec). TGN46 was used as a Golgi marker. Scale bar is 10 µm. […] The individual data points for the fraction of KDEL receptor fluorescence in the Golgi are plotted on the upper axes with sample sizes and p values. […] Endogenous ER chaperone secretion was measured by western blotting after challenge with different retrieval signals, and plotted as a bar graph showing mean ± SEM (n = 3). […] (a) Distribution of human KDELR1 and (b) KDELR2 was measured in COS-7 cells in the absence (-ligand) or presence of K/R/H/A/DDEL retrieval signals (K/R/H/A/DDEL^sec). […]

ERP44 = test: ER chaperone secretion assay, ERP44; assay type: cell-based, human
Description: Figure 1. ER retrieval signal abundance and affinity are not correlated. (a) Sequence logos for ER resident proteins with C-terminal KDEL retrieval signals and variants thereof calculated using frequency or protein abundance ([Itzhak et al., 2017]; [Itzhak et al., 2016]). (b) Combined cellular concentrations of ER resident proteins with canonical KDEL, RDEL, and HDEL retrieval sequences in HeLa cells and mouse brain. (c) Competition binding assays for [^3H]-TAEHDEL and unlabelled TAEKDEL, TAERDEL, and TAEHDEL to the KDEL receptor. IC50 values for the competing peptides were used to calculate the apparent KDwith the Cheng-Prusoff equation ([Cheng and Prusoff, 1973]). (d) Endogenous KDEL receptor redistribution was measured in COS-7 cells in the absence (-ligand) or presence of K/R/H/A/DDEL (mScarlet-xDEL^sec). TGN46 was used as a Golgi marker. Scale bar is 10 µm. (e) The mean difference for K/R/H/A/DDEL comparisons against the shared no ligand control are shown as Cummings estimation plots. The individual data points for the fraction of KDEL receptor fluorescence in the Golgi are plotted on the upper axes with sample sizes and p values. Figure 1—source data 1. Source data for the ligand-induced KDELR receptor retrieval assays in Figure 1e. Figure 1—figure supplement 1. Abundance of ER resident proteins and chaperones in human cells and mouse brain. (a) The mean concentration of ER resident chaperones with the indicated ER retrieval sequence variant is plotted in the bar graph ([Itzhak et al., 2017]; [Itzhak et al., 2016]). […] Endogenous ER chaperone secretion was measured by western blotting after challenge with different retrieval signals, and plotted as a bar graph showing mean ± SEM (n = 3). […] (a) Distribution of human KDELR1 and (b) KDELR2 was measured in COS-7 cells in the absence (-ligand) or presence of K/R/H/A/DDEL retrieval signals (K/R/H/A/DDEL^sec). […] The fraction of KDEL receptor localised to the Golgi was measured before (no ligand) and after challenge with different retrieval signals as indicated. […]

[2] = mean, HeLa S3, 24 hr, Western blot densitometry

ADEL [pcDNA3.1 hGHss-mScarlet-H. sapiens BiP639-654K651A (ADEL^SEC), secreted mScarlet fusion with human BiP C-terminus, ADEL signal]
localisation of the mScarlet ligand (in words) ([1]; COS-7 cells): predominantly Golgi and punctate localisation consistent with secretion | endogenous KDEL receptor redistribution from Golgi to ER (in words) ([1]; COS-7 cells expressing mScarlet-xDEL^sec): little effect on the Golgi-ER distribution of the receptor | ERP72 secretion after challenge with retrieval signal (ERP72; [2]): 4.2 | ERP72 secretion after challenge with retrieval signal (ERP72; replicate 2): 1.0 | ERP44 secretion after challenge with retrieval signal (ERP44; [2]): 11.8 | ERP44 secretion after challenge with retrieval signal (ERP44; replicate 1): 8.7 | ERP44 secretion after challenge with retrieval signal (ERP44; replicate 2): 14.9
